The values below come from patent US20030203899A1, “Drugs for incontinence” (priority 2000, published 2003).

This experiment has as its system strips of urinary guinea-pig bladder contracted with carbacol. As to the kind of experiment: Inhibition of bladder contraction: relaxation of guinea-pig urinary bladder strips contracted with carbacol, in vitro. Type of experiment: cell-based. The settings on record: strips contracted with carbacol 10^−6 M, placebo = 100. The text has this: The activity in the urinary incontinence of the compounds according to the present invention has been evaluated in an experimental model of inhibition of the bladder contraction.
The degree of the relaxation induced in the urinary bladder is a measure of the inhibitory action of the urinary incontinence of the drugs described in the present application.
Guinea-pigs of male sex having an average weight equal to 300-500 g were sacrificed and bled. The urinary bladder was removed and prepared for determining the myorelaxing activity in vitro, according to the method described by L. Nilvenbrant, Eur. J. Pharmacol. 327,195-207, 1997.
The obtained tissue strips were contracted with carbacol 10^−6 M in phisiological solution and the relaxation was determined in the presence of the compounds indicated in Table 1 at the concentrations mentioned therein. The 2-(acetyloxy) benzoic acid 6-(nitroxymethyl)-2-methylpyridyl ester hydrochloride was prepared according to Example 1 of patent application PCT/EP 00/01454 (NCX 4050).

Where a name gives a salt, the structure may show the parent alone.

As to `CC(=O)Oc1ccccc1C(=O)Oc1ccc(CO[N+](=O)[O-])nc1C.Cl` [NCX 4050, 2-(acetyloxy) benzoic acid 6-(nitroxymethyl)-2-methylpyridyl ester hydrochloride], the “Bladder strip contraction, % of placebo” value (compound 3 × 10 − 5 M) amounted to 71%.
On to oxybutynin nitrate salt, for which, where the note is “compound 10^−6 M”, the “Bladder strip contraction, % of placebo” value was 0%.
For `CCN(CC)CC#CCOC(=O)C(O)(c1ccccc1)C1CCCCC1` (centres unmarked) [Oxybutynin Hydrochloride (Comp), oxybutynin hydrochloride, reference compound], the “Bladder strip contraction, % of placebo” value (compound 10^−6 M) was 30%.
With sildenafil nitrate salt, where the note is “compound 3 × 10 − 5 M”, the “Bladder strip contraction, % of placebo” value is given as 31%.
Turning to `CCCc1nn(C)c2c(=O)[nH]c(-c3cc(S(=O)(=O)N4CCN(C)CC4)ccc3OCC)nc12` [Sildenafil Citrate, sildenafil citrate, reference compound], where the note is “compound 3 × 10 − 5 M”, the “Bladder strip contraction, % of placebo” value is listed as 52%.
